In brackets after ≈: the same amount, converted by molar mass. Some results are limits rather than exact numbers.

The conditions of the series: buffer; pH 7.4; 200.0 µM.
Regarding `O=C(Cc1ccc([N+](=O)[O-])cc1)N1CCCc2ccccc21`, the kinetic solubility is 39.5 µg/mL (≈ 133 µM). The compound `Fc1ccc(NC(=S)NCCN2CCOCC2)c(F)c1F` came in with a solubility (kinetic) above 47.9 µg/mL. As for `CCOc1ccccc1CNC(=O)CCc1cn(C)c2ccccc12`, the solubility (kinetic) was 3.1 µg/mL (≈ 9.21 µM). For `NC(=O)c1cc[n+](CC(=O)NC(=O)Nc2ccccc2)cc1`, the kinetic solubility amounted to 30.5 µg/mL. As for `NC(=O)NC(=O)COC(=O)c1ccc2noc(-c3ccccc3)c2c1`, the solubility (kinetic) worked out at 5.2 µg/mL (≈ 15.3 µM). With `Cc1ccc2oc(=O)n(Cc3ccc(OC(C)C)cc3)c2c1`, the solubility (kinetic) came to 1 µg/mL (≈ 3.36 µM). This solubility kinetic lies about 5.2-fold lower than the previous one. Turning to `CC(=O)/C(C#N)=C1\NC(=O)C(Cc2ccc(F)cc2)S1` (centres undefined), the solubility (kinetic) is above 43.5 µg/mL. For `CNC(=O)/C(C#N)=C/c1cc(C)n(-c2ccc(N3CCOCC3)cc2)c1C`, the solubility (kinetic) was determined as 1.5 µg/mL (≈ 4.12 µM).

As to `Cn1c(=O)oc2cc(S(=O)(=O)Nc3ccc(F)cc3)ccc21`, the solubility (kinetic) came out at 7.2 µg/mL (≈ 22.3 µM). The same measure for `CNC(=O)C(=O)Nc1cc2c3c(c1)CCC(=O)N3CCC2`: 19 µg/mL (≈ 66.1 µM). As to `Cc1cccc(NC(=S)NC2CCCC2)c1C`, the solubility (kinetic) was determined as 34.1 µg/mL (≈ 137 µM). The figure for `CC(NC(=O)CCNC(=O)c1ccccc1Cl)c1ccc(-n2ccnc2)cc1` (centres undefined) is above 59.5 µg/mL.

The compound `Cl.Fc1ccccc1Nc1nc(Cl)nc(Cl)n1` gave a solubility (kinetic) above 44.3 µg/mL. The figure for `CNc1nc(NCc2ccccc2)c2ccccc2n1.Cl` is 37 µg/mL. The compound `CC(=O)CCn1cc([N+](=O)[O-])nc1C` returned a kinetic solubility above 29.6 µg/mL. The figure for `COCCOc1ccc(C(F)(F)F)cc1N` is 31.9 µg/mL (≈ 136 µM). The figure for `Cc1ccc(C)c(SCC(=O)c2ccc[nH]2)c1` is 29.9 µg/mL (≈ 122 µM); for `Cc1nc(-c2ccccn2)nc(SCC(=O)c2ccc(F)cc2)c1Cl` it is 2.4 µg/mL (≈ 6.42 µM).

For the compound `O=S(=O)(NCc1ccccc1)c1ccc(Br)s1`, the kinetic solubility came out at 21.3 µg/mL (≈ 64.1 µM). This solubility kinetic is about 8.9-fold higher than that of the compound before. The figure for `COCCCNC(=S)Nc1ccc(OC(F)F)cc1C` is 45.1 µg/mL (≈ 148 µM). In the case of `CCOCC(=O)N1CCN(Cc2ccc3c(c2)OCO3)CC1`, the kinetic solubility was above 46 µg/mL. The figure for `CC1CCCC(NC(=O)COC(=O)[C@@H](NC(=O)c2ccc(F)cc2)C(C)C)C1C` (some centres undefined) is 8.7 µg/mL (≈ 21.4 µM); for `CCOc1ccc(N(C)Cc2cc(=O)oc3ccc(OCC)cc23)cc1` it is 2.3 µg/mL (≈ 6.51 µM); for `O=C(O)c1ccccc1C(=O)NCc1ccc2c(c1)OCO2` it is 44.9 µg/mL (≈ 150 µM).

The compound `Cc1csc(NC(=O)Cc2ccc(Cl)cc2)n1` registered a solubility (kinetic) of 22.2 µg/mL (≈ 83.2 µM). Compared with the last compound, the solubility kinetic is about 2-fold lower.

In the case of `O=C(OCC(=O)N1CCOCC1)c1ccc(O)cc1`, the kinetic solubility stood at 31 µg/mL (≈ 117 µM). The same measure for `COc1ccc(C(=O)NCCSCc2cccc(Cl)c2)cc1OC`: 6.3 µg/mL (≈ 17.2 µM); for `CC1CCCC(C)N1/N=C/c1ccc(C#N)cc1` (centres undefined): above 36.2 µg/mL. For the compound `Cc1ccc(OCCNC(=O)c2ccc(C)o2)cc1`, the kinetic solubility is above 38.9 µg/mL. `O=c1[nH]c(O)c(/C=C2\C=Nc3ccc(Br)cc32)[nH]1` came in with a solubility (kinetic) of 3.3 µg/mL (≈ 10.8 µM). The figure for `O=C(CN1C(=O)NC2(CCCCCC2)C1=O)c1ccc(F)cc1` is above 47.8 µg/mL.

The compound `O=C(COc1ccc(S(=O)(=O)N2CCOCC2)cc1)NC1CC1` displayed a solubility (kinetic) above 51.1 µg/mL. Compound `O=C(NCCCCc1ccccc1)c1cccc(Br)c1` yielded a kinetic solubility of 9.6 µg/mL (≈ 28.9 µM). The figure for `Cc1cc(C)nc(NS(=O)(=O)c2ccc(CC(C)C)cc2)c1` is 28.9 µg/mL (≈ 90.8 µM); for `Cc1ccc(C(=O)NC(=S)Nc2ccccc2C)cc1` it is 1.4 µg/mL (≈ 4.92 µM); for `O=C(O)CN1c2cccc3cccc(c23)S1(=O)=O` it is 38.2 µg/mL (≈ 145 µM). The figure for `Cn1cccc1C(=O)Nc1ccc(N2CCOCC2)cc1` is above 42.8 µg/mL.

The compound `COc1ccc2[nH]c(C(=O)Nc3cccc(C)n3)cc2c1` displayed a solubility (kinetic) of 1.9 µg/mL (≈ 6.75 µM).

As for `O=C(CN1C(=O)S/C(=C\c2ccccn2)C1=O)Nc1ccccc1`, the solubility (kinetic) was 1.5 µg/mL (≈ 4.42 µM). The figure for `N#Cc1c(C(F)(F)F)cc(-c2cccs2)nc1N1CCCCC1` is below 0.2 µg/mL; for `Cc1cccc(C(=O)O/N=C(/c2ccccc2)c2ccncc2)c1` it is below 0.3 µg/mL.

Compound `Cc1noc(C)c1C(=O)NC(Cc1c[nH]c2ccccc12)C(=O)O` (centres undefined) showed a solubility (kinetic) above 49.1 µg/mL.

`COc1ccc(C(C)NC(=O)c2ccncc2)cc1OC` (centres undefined) had a solubility (kinetic) above 42.9 µg/mL.

In turn, `COC(OC)c1ccc(C#N)c(SCc2ccccc2)n1` had a solubility (kinetic) of 9.4 µg/mL (≈ 31.3 µM). The same measure for `COc1cc(CNCc2ccncc2)cc(OC)c1OC.Cl`: above 48.7 µg/mL; for `CCOC(=O)c1ccc(Nc2c(OCC)c(=O)c2=O)cc1`: 21.6 µg/mL (≈ 74.7 µM). The compound `N#Cc1ccc(NCCc2ccccn2)c([N+](=O)[O-])c1` showed a kinetic solubility above 40.2 µg/mL. Take `Br.COC(=O)CN1C2=NCCCN2c2ccccc21`: the kinetic solubility was above 48.9 µg/mL. As to `C#CCN(C)CCCOc1ccc(Cl)cc1Cl.Cl`, the solubility (kinetic) is 8.7 µg/mL. `COc1cc(C)c(NC(=O)c2cccc(S(=O)(=O)N3CCCC3)c2)cc1OC` yielded a kinetic solubility of 32.5 µg/mL (≈ 80.3 µM). The figure for `Cc1ccc(N(CC(=O)Nc2c(C)cccc2C)S(C)(=O)=O)cc1` is 35.1 µg/mL (≈ 101 µM); for `Cc1nc(OCC(C)C)c2sc3nc4c(cc3c2n1)COC(C)(C)C4` it is 14.6 µg/mL (≈ 40.8 µM); for `CCN(c1ccccc1)S(=O)(=O)c1ccc(OC)c(NC(=O)C2CCC2)c1` it is 23 µg/mL (≈ 59.2 µM). Take `CC(=O)c1cccc(Nc2c([N+](=O)[O-])c(=O)oc3ccccc23)c1`: the solubility (kinetic) is 0.9 µg/mL (≈ 2.78 µM). For `CC(=O)Cn1cnc2c(sc3nc(C)cc(C)c32)c1=O`, the kinetic solubility was 7.2 µg/mL (≈ 25.1 µM). In turn, `O=C(COC(=O)COc1ccccc1F)Nc1cccc(S(=O)(=O)N2CCCCC2)c1` yielded a solubility (kinetic) of 47.8 µg/mL (≈ 106 µM).

Turning to `COc1ccccc1CNS(=O)(=O)c1cc(C(=O)NCC2CCCO2)c(Cl)cc1Cl` (centres undefined), the solubility (kinetic) was above 71 µg/mL. The same measure for `CCc1ccc(N2CN(Cc3ccco3)CNC2=S)cc1`: 11.9 µg/mL (≈ 39.5 µM); for `Cc1cc(Br)ccc1S(=O)(=O)n1ccnc1C`: above 47.3 µg/mL; for `CN1C(=O)Nc2cccc3cccc1c23`: 10.1 µg/mL (≈ 51 µM).

`O=C1OC(c2ccc3c(c2)OCO3)=N/C1=C\c1ccc(C(=O)O)cc1` showed a kinetic solubility above 50.6 µg/mL. The figure for `COP(=O)(OC)C(Nc1ccc([N+](=O)[O-])cc1)c1ccccc1` (centres undefined) is above 50.4 µg/mL; for `Cc1cc(C)nc(NC(=O)c2ccc(Br)cc2)n1` it is above 45.9 µg/mL. `Cc1c(Cl)cccc1NC(=O)Cn1c(-c2ccc(F)cc2)noc1=O` yielded a solubility (kinetic) of 4 µg/mL (≈ 11.1 µM). The same measure for `Cc1ccc(S(=O)(=O)NC2CC2)cc1`: above 31.7 µg/mL; for `O=C(NCc1cccnc1)C(=O)Nc1ccc([N+](=O)[O-])cc1`: 3.7 µg/mL (≈ 12.3 µM); for `O=C(NC(CO)C(=O)OCc1ccccc1)OCc1ccccc1` (centres undefined): above 49.4 µg/mL. The same measure for `COc1ccc2[nH]cc(CCNC(=O)c3ccc([N+](=O)[O-])cc3)c2c1`: 26.3 µg/mL (≈ 77.5 µM); for `CC(NC(=O)CN1CCN(Cc2cccc(F)c2)CC1)c1ccccc1` (centres undefined): above 53.3 µg/mL; for `COc1cc2c(cc1OC)CN(C(=O)c1sccc1C)CC2`: 45.8 µg/mL (≈ 144 µM). In the case of `O=C1NC(=O)/C(=C\c2cn(Cc3ccccc3F)c3ccccc23)N1`, the solubility (kinetic) came to 0.8 µg/mL (≈ 2.39 µM). For the compound `c1ccc2nc(SCc3cn4ccccc4n3)cnc2c1`, the kinetic solubility was above 43.9 µg/mL. The figure for `CNC(=O)C12N=CNN=C1N(C)C(=O)N2C` (centres undefined) is above 33.6 µg/mL; for `Fc1cccc(NC(=S)Nc2cccc3ccccc23)c1` it is 19.6 µg/mL (≈ 66.1 µM).

Source of the values: PubChem BioAssay AID1996.
